We go through two compounds from US20070232657A1, “NOVEL COMPOUNDS” (GLAXO GROUP LIMITED, priority 2006, published 2007).

Assay [1] relates to longitudinal muscle strips from the rat gastric forestomach. Put plainly: Rat isolated forestomach assay (EFS-evoked contractions). As to the method:
Rat Isolated Forestomach Assay
Longitudinal muscle strips with mucosa partially removed were,obtained from the rat gastric forestomach, and suspended under an initial “load” of 1 g for isometric recording between two platinum ring electrodes, in 5 or 10 ml tissue baths containing Krebs solution bubbled with 5% CO2/95% O2 and maintained at 37° C. Following an equilibration period of 30 min, during which time the tissues were flushed every 15 minutes with fresh Krebs solution, tissues were stimulated with electrical field stimulation (EFS) [50V for 10 ml bath, 25V for 5 ml bath, at 2.5 Hz 0.5 ms pulse duration, for 10 s, every 1 min]. The tissues were left stimulating for at least 30 min. After obtaining consistent responses to EFS, the test compound was added to the bathing solution, each dose left in contact for at least 10 minutes. The % potentiation of contractions to EFS were measured as the area of 4 maximum EFS contractions after addition of compound relative to the area of 4 maximum EFS contractions before addition of the lowest concentration of compound. Data are expressed as means standard error of the mean; n-values are per animal used.

Assay [2] has as its target T1, human 5-HT4a receptor (Homo sapiens, UniProt Q13639). Put plainly: Mammalian functional 5-HT4a agonist assay (HEK-293-MSR-II cells, FLIPR). Set-up: expressed in transfected cells; host or cells: HEK-293-MSR-II cells transduced with BacMam viruses. Type of assay: cell-based. As to the method:
Mammalian Functional 5-HT4a Agonist Assay
Human embryonic kidney cells stably expressing the human macrophage scavenger receptor type II (HEK-293-MSR-II cells) were established in-house (Lysko PG et al., J Pharmacol Exp Ther. 289(3):1277-85). These cells were grown in humidified conditions in Minimum Essential Medium containing 10% fetal calf serum (FCS), 1× non-essential amino acids, 2 mM L-glutamine and 0.4 mg/ml geneticin at 37° C./5% CO2.
BacMam plasmid constructs for the production of viruses for expression in mammalian cells were generated as described (Condreay J P et al., Proc. Natl. Acad. Sci. 96:127-132, Ames R et al., Receptors Channels 10(3-4):117-24). […]
The next day 50 μl Fluo4am dye (at 6 μM in Tyrodes buffer containing 1.5 mM calcium chloride and 2.5mM probenicid) was added to each well and incubated at 37° C./5% CO2 for one hour. […] A Fluorimetric Imaging Plate Reader (FLIPR) was used to add the compounds to the cells (50 μl per well) and to determine peak fluorescence emitted per well over the whole assay period.

In assay [3] the target is T1, human 5-HT4a receptor. Nature of the assay: Yeast functional 5-HT4a agonist assay. It is filed as cell-based. Set-up: expressed in transfected cells; host or cells: Saccharomyces cerevisiae strain MMY23 (expression cassette integrated at the ura3 locus). The following applies: n=9. The source says: Yeast Functional 5-HT4a Agonist Assay
Yeast (Saccharomyces cerevisiae) cells expressing the human 5-HT4a receptor were generated by integration of an expression cassette into the ura3 chromosomal locus of yeast strain MMY23. This cassette consisted of DNA sequence encoding the human 5-HT4a receptor flanked by the yeast glyceraldehyde-3-phosphate dehydrogenase (GPD) promoter to the 5′ end of 5-HT4a and a yeast transcriptional terminator sequence to the 3′ end of 5-HT4a. MMY23 expresses a yeast/mammalian chimeric G-protein alpha subunit in which the C-terminal 5 amino acids of Gpa1 are replaced with the C-terminal 5 amino acids of human Gil (as described in Brown et al. (2000), Yeast 16:11-22). Cells were grown at 30° C. in liquid Synthetic Complete (SC) yeast media (Guthrie and Fink (1991), Methods in Enzymology, Vol.194) lacking uracil, tryptophan, adenine and leucine to late logarithmic phase (approximately 6 OD600/ml).
Agonists were prepared as 10 mM stocks in DMSO. EC50 values (the concentration required to produce 50% maximal response) were estimated using serial dilutions of between 3- and 5-fold (BiomekFX, Beckman) into DMSO. pEC50 corresponds to negative log10 of molar EC50. […] After incubation at 30° C. for 24 hours, fluorescence resulting from degradation of FDGlu to fluorescein due to exoglucanase, an endogenous yeast enzyme produced during agonist-stimulated cell growth, was determined (excitation wavelength: 485 nm; emission wavelength: 535 nm) using a Spectrofluor (Tecan) or similar microtitre plate reader. Fluorescence was plotted against compound concentration and iteratively curve fitted using a four parameter fit to generate a concentration effect value. […]
Where Max[compound X] and Min[compound X] are the fitted maximum and minimum respectively from the concentration effect curve for compound X, and Max[5-HT] and Min[5-HT] are the fitted maximum and minimum respectively from the concentration effect curve for 5-hydroxytryptamine. Equieffective molar ratio (EMR) values were calculated from the equation: EMR=EC50 [compound X]/EC50 [5-HT] […]

The target in another assay is 5HT2b (Homo sapiens, UniProt P41595). Nature of the assay: 5HT2b antagonist activity (no method given).
5HT2b, sequence (P41595 whole entry, species assumed): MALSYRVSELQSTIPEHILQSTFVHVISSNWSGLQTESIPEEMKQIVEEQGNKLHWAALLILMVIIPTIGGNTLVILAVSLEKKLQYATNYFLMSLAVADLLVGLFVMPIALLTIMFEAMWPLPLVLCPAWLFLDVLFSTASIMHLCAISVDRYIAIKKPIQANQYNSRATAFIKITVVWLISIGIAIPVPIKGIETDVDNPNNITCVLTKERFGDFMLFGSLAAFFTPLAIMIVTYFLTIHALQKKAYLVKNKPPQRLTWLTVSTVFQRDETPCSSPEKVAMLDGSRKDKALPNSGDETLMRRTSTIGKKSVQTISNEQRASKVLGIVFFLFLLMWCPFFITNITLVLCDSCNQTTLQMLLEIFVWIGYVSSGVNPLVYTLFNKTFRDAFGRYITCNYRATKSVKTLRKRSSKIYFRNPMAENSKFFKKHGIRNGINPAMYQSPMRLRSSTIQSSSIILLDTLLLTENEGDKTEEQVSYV

Each structure is given as a SMILES string.

T1 sequence (Q13639 1-387 isoform Q13639-2): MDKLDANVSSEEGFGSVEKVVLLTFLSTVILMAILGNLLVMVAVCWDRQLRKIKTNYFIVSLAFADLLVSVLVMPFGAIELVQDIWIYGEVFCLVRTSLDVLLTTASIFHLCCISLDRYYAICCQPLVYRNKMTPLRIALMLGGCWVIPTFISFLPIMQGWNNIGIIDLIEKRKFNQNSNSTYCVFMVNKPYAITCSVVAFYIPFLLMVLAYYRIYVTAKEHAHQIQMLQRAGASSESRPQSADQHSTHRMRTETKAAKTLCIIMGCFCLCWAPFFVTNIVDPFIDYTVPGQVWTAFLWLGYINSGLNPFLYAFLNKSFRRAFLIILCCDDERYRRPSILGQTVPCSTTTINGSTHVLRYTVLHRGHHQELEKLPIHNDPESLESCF

Turning to `Cl.Nc1c(Br)cc(C(=O)NCC2CCN(CC3CCOCC3)CC2)c2c1CCCO2` [Example E1, 5-Amino-6-bromo-N-{[1-(tetrahydro-2H-pyran-4-ylmethyl)-4-piperidinyl]methyl}-3,4-dihydro-2H-chromene-8-carboxamide hydrochloride], the “% potentiation of contractions to EFS, Mean” value in assay [1] (1 nM E1, n=5) was determined as 12.89%; in assay [1] (10 nM E1, n=5), 50.62%; in assay [1] (100 nM E1, n=5), 89.57%; in assay [1] (1 μM E1, n=5) it was 115.46%; in assay [1] (10 μM E1, n=5), 181.32%. The EC50 was 2.29 nM at human 5-HT4a receptor [2] (HEK-293-MSR-II cells, BacMam 5-HT4a + Gα16, n=12, read-out: mean pEC50 (converted)) and 0.501 nM at human 5-HT4a receptor [3] (yeast cells expressing human 5-HT4a, read-out: Mean pEC50 (converted)). On human 5-HT4a receptor [2] (relative to maximal effect of 5-HT, n=12), this compound had a mean efficacy of 70%. Further, the “EMR (equieffective molar ratio, EC50 compound/EC50 5-HT)” value on human 5-HT4a receptor [3] (relative to 5-HT) came out at 0.281. Further, the maximal effect (Emax) – broadly, the maximal effect, on the per cent scale that the assay sets – on human 5-HT4a receptor [3] (relative to 5-hydroxytryptamine, read-out: Mean efficacy (Emax relative to 5-HT)) amounted to 94%.
On to `Nc1c(Br)cc(C(=O)NCC2CCN(CC3CCOCC3)CC2)c2c1CCCO2` [(A), 5-amino-6-bromo-N-{[1-(tetrahydro-2H-pyran-4-ylmethyl)-4-piperidinyl]methyl}-3,4-dihydro-2H-chromene-8-carboxamide], for which, in assay [1] (in vitro, rat forestomach assay), the gastroprokinetic activity result is “exhibits gastroprokinetic activity”. At 5HT2b, the 5HT2b antagonist activity entry is given as “exhibit 5HT2b antagonist activity”.
